# Test results: PubChem BioAssay (NCI)
# Values joined by “and” are separate entries in the source; they are usually repeats but may differ in a detail not shown here. Equal entries are not always repeated.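 Values below derive from 48-hour exposures of cells grown in 96-well plates, with endpoints linearly interpolated between the two concentrations bracketing the appropriate inhibition level. The concentration for 50% growth inhibition is given as GI50. TGI: concentration producing complete growth inhibition.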
# Columns and labels:
# Test in all cases: NCI tumour cell line growth inhibition, 48 h
# DLD-1 colon = system: DLD-1 colon
# DMS 114 small cell lung = system: DMS 114 small cell lung
# KM20L2 colon = system: KM20L2 colon
# M19-MEL melanoma = system: M19-MEL melanoma
# XF 498 CNS = system: XF 498 CNS
# MDA-N = system: MDA-N
# BT-549 breast = system: BT-549 breast
# MCF7 breast = system: MCF7 breast
SMILES,TGI (DLD-1 colon),TGI (DMS 114 small cell lung),TGI (KM20L2 colon),TGI (M19-MEL melanoma),TGI (XF 498 CNS),TGI (MDA-N),TGI (BT-549 breast),TGI (MCF7 breast),other results
CN=S(=O)(c1ccccc1)c1ccccc1,> 100 µM,> 100 µM,> 100 µM,> 100 µM,> 100 µM,–,–,–,–
CCC12CCCC(=O)N1C(CO)C(c1ccccc1)O2 (configuration not stated),> 100 µM,> 100 µM,> 100 µM,> 100 µM,> 100 µM,–,–,–,–
CC1C(=O)C(C)C(c2ccccc2)N(N=O)C1c1ccccc1 (configuration not stated),> 1000 µM,–,> 1000 µM,> 1000 µM,73.8 µM and 214 µM,306 µM,–,–,GI50 (DLD-1 colon): > 1000 µM; GI50 (M19-MEL melanoma): > 1000 µM; GI50 (XF 498 CNS): 53.2 µM
CC(=O)Oc1ccc(O)c(O)c1C/C=C(\C)CC/C=C(\C)CC/C=C(\C)CCC=C(C)C,1.41 µM,1.29 µM,3.74 µM,1.81 µM,0.818 µM,–,–,–,–
CC(=O)NC1=C(C)C(=O)c2c(nc3n2CCC3O)C1=N (configuration not stated),25.1 µM,13.4 µM,36.9 µM,4.94 µM,9.04 µM,–,–,–,–
O=NNc1nc(-c2cccnc2)nc2ccccc12,–,–,–,–,–,> 100 µM,> 100 µM,> 100 µM,–
CC(C)C1CC(O)O[C@@H]([C@@H](C)[C@H]2CC(=O)[C@@H]3[C@@H]4[C@@H](O)[C@H](O)[C@H]5[C@@H](O)[C@H](O)CC[C@]5(C)[C@H]4CC[C@]23C)C1 (some centres not stated),> 100 µM,–,> 100 µM,> 100 µM,56 µM,–,–,–,–
CC(C)CC1=[N+]=C(NC#N)N=C(CCC(=O)Nc2ccccc2[N+](=O)[O-])C1,> 100 µM,> 100 µM,> 100 µM,> 100 µM,> 100 µM,–,–,–,–
CCCCn1cnc2c(SC)ncnc21,–,–,–,–,–,> 100 µM,> 100 µM,> 100 µM,–
NC(=O)N1N=C2c3ccccc3SC[C@H]2[C@@H]1c1ccccc1,91 µM,79.9 µM,39.8 µM,> 100 µM,56.8 µM,–,–,–,–
COC(=O)C1C2C=CC(C2)N1[C@@H](C)c1ccccc1 (some centres not stated),> 100 µM,–,> 100 µM,> 100 µM,–,–,–,–,–
COc1ccc2c3c(c(=O)n(C)c2c1OC)C=CC(C)(C)O3,–,–,–,–,–,62.2 µM,> 100 µM,> 100 µM,–
CC12CCC(=O)C=C1CCC1C2C(O)CC2(C)C(c3csc(N)n3)CCC12 (configuration not stated),–,–,–,–,–,> 100 µM,> 100 µM,> 100 µM,–
COC(=O)c1csc(-c2nc(CCNC(=O)OC(C)(C)C)sc2Br)n1,–,–,–,–,–,> 100 µM,> 100 µM,> 100 µM,–
C=C(C)C(=O)O[C@H]1[C@H]2[C@H](OC(=O)[C@H]2C)[C@H](O)[C@@H](C)[C@@H]2C=CC(=O)[C@]21C,–,–,–,–,–,7.68 µM,15.5 µM,15.5 µM,–
Nc1nc2c(c(=O)[nH]1)CN(c1ccc(S(N)(=O)=O)cc1)CN2,–,–,–,–,–,> 100 µM,> 100 µM,> 100 µM,–
CN(C)CCOc1ccc2c(c1)C/C(=C/c1ncc([N+](=O)[O-])n1C)C2=O,–,–,–,–,–,16.8 µM,3.74 µM,7.11 µM,–
CCc1cc(O)c(Cl)c(C)c1Cl,–,–,–,–,–,29.9 µM,36 µM,61.6 µM,–
CC(=O)OC1c2ccccc2CCCCCCC12OCCO2 (configuration not stated),> 100 µM,> 100 µM,> 100 µM,–,–,–,–,–,–
NNC(=O)CCC(=O)NC1C2CC3CC(C2)CC1C3 (configuration not stated),> 100 µM,> 100 µM,> 100 µM,> 100 µM,–,–,–,–,–
COc1ccc(C2S/C(=C\c3ccc(O)cc3)C(=O)N2NC(=O)Cc2ccccc2)cc1 (configuration not stated),> 100 µM,> 100 µM,–,> 100 µM,–,–,–,–,–
COc1ccc(C(C#N)NNc2nc(C)cc(=O)[nH]2)cc1OC (configuration not stated),> 100 µM,> 100 µM,> 100 µM,> 100 µM,–,–,–,–,–
COc1cc([C@@H]2c3cc4c(cc3[C@@H](NC(=O)c3ccccc3)C3COC(=O)[C@@H]32)OCO4)cc(OC)c1O (some centres not stated),> 100 µM,21.4 µM,12.8 µM,24.7 µM,–,–,–,–,–
O=C1CC[C@@H](S(=O)(=O)c2ccccc2)[C@@H](/C=C/c2ccccc2)O1,–,> 100 µM,> 100 µM,> 100 µM,–,–,–,–,–
COc1ccc(O)c(C#N)c1C#N,–,–,> 100 µM,> 100 µM,> 100 µM,–,–,–,–
CC(C)NC(=O)OCCS(=O)c1c(Cl)c(Cl)nn1C (configuration not stated),–,–,–,–,–,> 100 µM,–,> 100 µM,–
CCOc1ccc(NCc2cc(OC)c(OC)c(OC)c2)cc1,> 100 µM,3.17 µM and 20 µM,1.79 µM and 3.09 µM,–,> 95.6 µM and 62 µM,> 100 µM,> 100 µM,> 100 µM,GI50 (MDA-N): 0.565 µM and 0.446 µM; GI50 (XF 498 CNS): 9.37 µM and 3 µM
COc1cc(-c2cn(-c3ccc(Cl)cc3)c(C)c2C(=O)C(F)(F)F)cc(OC)c1OC,–,–,–,–,–,–,> 100 µM,> 100 µM,GI50 (BT-549 breast): 46.8 µM; GI50 (MCF7 breast): 24.6 µM
CC(=O)n1c2ccccc2c2nc3nc(Oc4ccc(C)cc4)c4ccccc4c3cc21,> 100 µM,> 100 µM,> 100 µM,> 100 µM,–,–,–,–,–
Cc1cc2c3ccccc3n(C)c2c2c1C(=O)C=CC2=O,27 µM,13 µM,–,33.4 µM,31.3 µM,25.5 µM,46.4 µM,17.5 µM,–
